These results are taken from publication PMC10877733, “Discovery and Characterization of VU0542270, the First Selective Inhibitor of Vascular Kir6.1/SUR2B KATP Channels” (Molecular Pharmacology, 2024).

Each structure is given as a SMILES string. Where only a bound is given, the exact number is not on record here.

The nature of data set [1]: Intrinsic clearance in liver microsomes, human. The format is in vitro ADME. As to the method: The in vitro intrinsic clearance (CLint) of VU0542270 was investigated in commercially obtained hepatic microsomes from rat, mouse, and human donors using the substrate depletion (i.e., loss-of-parent versus time, or t1/2 method) approach with analyte detection via LC-MS/MS. For each species, mean per cent parent remaining values at each time point were calculated from replicates raw data (analyte:IS peak area ratios) and used to determine in vitro t1/2 and CLint.
Experiments were carried out using a robot-assisted liquid handling system (TECAN model Evo 200). VU0542270 was incubated (1 µM final concentration) in buffer (100 mM potassium phosphate, pH 7.4, with 3 mM MgCl2) containing hepatic microsomes (0.5 mg/mL final concentration) from multiple species, discretely, at 37°C under constant orbital shaking. After 5 minutes (preincubation), reactions were initiated by the addition of NADPH (1 mM final concentration). At selected time intervals (0, 3, 7, 15, 25, and 45 minutes) post addition of NADPH, aliquots (50 µL) were taken and placed into a 96-shallow-well plate containing ice-cold acetonitrile (150 µL) with carbamazepine (IS, 50 nM). The plates were then centrifuged (3000 rcf at 4°C) for 10 minutes. […]
Predicted hepatic clearance (CLhep) was calculated using the following equation: [drawing 4] […]

Data set [2] has as its target T1, Kir4.1/Kir5.1 (Homo sapiens, UniProt P78508+Q9NPI9).
T1 construct: expressed in transfected cells
T1 sequence (P78508 1-379): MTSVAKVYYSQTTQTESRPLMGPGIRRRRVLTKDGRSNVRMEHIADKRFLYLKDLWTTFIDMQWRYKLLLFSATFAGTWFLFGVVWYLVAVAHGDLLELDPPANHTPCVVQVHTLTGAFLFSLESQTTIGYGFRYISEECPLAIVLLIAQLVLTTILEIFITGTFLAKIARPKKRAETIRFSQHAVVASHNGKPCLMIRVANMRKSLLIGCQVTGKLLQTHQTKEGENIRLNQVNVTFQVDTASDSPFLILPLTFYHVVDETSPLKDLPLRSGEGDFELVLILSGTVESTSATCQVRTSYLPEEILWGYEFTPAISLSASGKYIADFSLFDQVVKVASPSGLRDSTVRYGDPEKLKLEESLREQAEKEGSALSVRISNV
T1 sequence (Q9NPI9 1-418): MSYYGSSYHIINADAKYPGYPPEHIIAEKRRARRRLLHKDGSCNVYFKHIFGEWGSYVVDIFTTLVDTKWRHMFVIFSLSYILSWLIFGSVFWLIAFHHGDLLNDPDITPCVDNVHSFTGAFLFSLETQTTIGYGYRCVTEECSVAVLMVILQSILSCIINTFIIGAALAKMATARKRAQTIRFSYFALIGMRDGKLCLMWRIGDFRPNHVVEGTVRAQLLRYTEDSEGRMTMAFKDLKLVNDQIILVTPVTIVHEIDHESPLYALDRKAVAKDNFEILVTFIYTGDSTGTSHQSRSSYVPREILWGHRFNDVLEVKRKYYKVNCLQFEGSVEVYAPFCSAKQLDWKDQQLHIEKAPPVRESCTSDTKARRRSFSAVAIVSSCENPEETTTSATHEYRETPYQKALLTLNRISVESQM
Description: Thallium flux selectivity assay Kir4.1/Kir5.1. The format is cell-based. As to the method:
(§1) Quantitative thallium flux assays of Kir6.1/SUR2B activity were performed essentially as described previously for Kir6.2/SUR1 ([Raphemot et al., 2014]; [Kharade et al., 2019]). Stable T-Rex-HEK293-Kir6.1/SUR2B cells or transiently transfected HEK293T cells were plated in polyamine-coated, clear-bottomed, black-walled 384-well plates and were cultured (37°C/5% CO2) overnight in Dulbecco’s modified Eagle’s medium (Gibco, Carlsbad, CA, 11995-065) containing 10% FBS (2 mM Penicillin-Streptomycin). The following day, cells were washed with assay buffer (i.e., Hanks’ balanced salt solution/20 mM HEPES) and loaded for 1 hour with thallium sensor dye Brilliant Thallium (Ion Bioscience, San Marcos, TX) at room temperature. Dye-loaded cells were washed with assay buffer and transferred to a Panoptic Kinetic Imaging Plate Reader (Wavefront Bioscience, Franklin, TN). Control and test compound treatments were for 4 minutes prior to adding 0.5 mM chloride-free thallium stimulus buffer (Ion Bioscience) to initiate thallium flux. […] Selectivity assays against other Kir channels were performed essentially as described previously ([Kharade et al., 2018]; [McClenahan et al., 2022]).

Data set [3] has as its target T2, Kir2.3 (Homo sapiens, UniProt P48050).
T2 construct: expressed in transfected cells
T2 sequence (P48050 1-445): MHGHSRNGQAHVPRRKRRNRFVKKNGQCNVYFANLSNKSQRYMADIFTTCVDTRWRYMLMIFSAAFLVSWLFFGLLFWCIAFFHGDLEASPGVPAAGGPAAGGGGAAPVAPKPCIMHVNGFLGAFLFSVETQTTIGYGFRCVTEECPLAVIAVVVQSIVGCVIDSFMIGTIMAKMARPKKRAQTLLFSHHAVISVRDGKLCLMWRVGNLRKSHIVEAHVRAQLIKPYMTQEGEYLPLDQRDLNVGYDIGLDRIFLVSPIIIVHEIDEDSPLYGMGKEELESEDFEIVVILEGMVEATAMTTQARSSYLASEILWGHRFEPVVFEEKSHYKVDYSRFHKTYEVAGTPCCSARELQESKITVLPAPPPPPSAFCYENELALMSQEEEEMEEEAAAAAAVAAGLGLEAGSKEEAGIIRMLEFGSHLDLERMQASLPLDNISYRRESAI
Description: Thallium flux selectivity assay Kir2.3. The format is cell-based. As to the method:
as §1

The IC50 is the midpoint of a concentration-inhibition curve. A high value points to weaker potency in that assay. Turning to `Cc1nc(-c2cccs2)sc1CNC(=O)Nc1cccs1` [VU0542270], in data set [1] (corrected to plasma unbound fraction), the “Predicted CLhep,u (human)” value is listed as 1.3 mL/min per kg. Further, the “Predicted CLhep (human)” value in data set [1] (from microsomal CLint) is given as 19 mL/min per kg. Besides, the IC50 in data set [2] and in data set [3] was over 30 µM throughout.
